Measured values as given in patent publication US12673038B2, “Antimycotic methoxyflavone and fluconazole combination for inhibiting cryptococcus” (Karl-Franzens-Universität Graz, priority 2019, dated 2026).
Converted amounts (≈) assume the structure as drawn.

Columns and labels:
[1] = test system: S. cerevisiae BY4741; assay: AnnexinV/PI co-staining for cell death markers (flow cytometry); type: cell-based, Saccharomyces cerevisiae; details: day 3 after treatment, indicated concentrations
Procedure: S. cerevisiae BY4741 cells were grown in SMD minimal media to mid-log phase and then treated with the indicated concentrations of 5-MF; control cells were treated with the same amount of solvent (DMSO). (A) Clonogenicity was assayed by plating 500 cells on YPD agar plates and colony forming units (CFUs) were counted to calculate survival rates. (B) Yeast cells were analyzed for cell death markers via AnnV/PI co-staining using flow cytometry. (C) The accumulation of reactive oxygen species was monitored by dihydrotethidium (DHE) to ethidium (Eth) conversion using flow cytometry. Assays in (A-C) were performed on day 3 after treatment. […] Data was analyzed by one-way ANOVA and corrected for multiple comparison using a Bonferroni post-hoc test. ns: not significant, * p<0.05, *** p<0.001, **** p<0.0001. […] Cell death markers were assessed by AnnexinV/PI co-staining. Therefore, 1-2×10^7 cells were harvested and treated with 3 μL […]; Sigma, Germany) and 15 μL glucuronidase/arylsulfatase (4.5 U/mL; Roche, Austria) for sphaeroblastation (60 min at 28° C. and 145 rpm). Resulting sphaeroblasts were co-stained with AnnexinV (Roche, Austria) and PI (Sigma, Germany) and analyzed via flow cytometry, using an LSRII Fortessa (BD, Ex: 488 nm; Em: 695 nm for PI and 530 nm for FITC). At least 30,000 cells were analyzed for each sample.

[2] = test system: S. cerevisiae BY4741; assay: ROS accumulation by DHE to ethidium conversion (flow cytometry); type: cell-based, Saccharomyces cerevisiae; details: day 3 after treatment
Procedure: S. cerevisiae BY4741 cells were grown in SMD minimal media to mid-log phase and then treated with the indicated concentrations of 5-MF; control cells were treated with the same amount of solvent (DMSO). (A) Clonogenicity was assayed by plating 500 cells on YPD agar plates and colony forming units (CFUs) were counted to calculate survival rates. (B) Yeast cells were analyzed for cell death markers via AnnV/PI co-staining using flow cytometry. (C) The accumulation of reactive oxygen species was monitored by dihydrotethidium (DHE) to ethidium (Eth) conversion using flow cytometry. Assays in (A-C) were performed on day 3 after treatment. […] Data was analyzed by one-way ANOVA and corrected for multiple comparison using a Bonferroni post-hoc test. ns: not significant, * p<0.05, *** p<0.001, **** p<0.0001. […] Accumulation of ROS was determined by dihydroethidium (DHE) staining as described for PI staining, using a 100 ng/mL DHE solution (Sigma, Germany) in PBS. After staining cells were sedimented again and resuspended in PBS to avoid dye deposition. For each sample, at least 30,000 cells were analyzed using flow cytometry (LSRII Fortessa, BD; Ex: 488 nm, Em: 585 nm).

[3] = test system: C. glabrata BG2; assay: MIC determination, CLSI protocol M27-A3, OD490; type: cell-based, Candida glabrata; details: Nakaseomyces glabratus; C. glabrata BG2 planktonic growth, mean±SEM
[4] = test system: C. albicans SC5314; assay: C. elegans infection model for C. albicans infection; type: in vivo, Caenorhabditis elegans; details: C. elegans Δglp-4 Δsek-1 infected with C. albicans
Procedure: Survival curves of non-infected (ui ctrl.) and infected (i ctrl.) nematodes treated or not with 5-MF are shown in (A), and the survival of living nematodes on day 5 is shown in (B). Synchronized C. elegans Δglp-4 Δsek-1 larvae were infected at the L4 stage as previously described (Delattin N, et al., Antimicrob Chemother. 69(2014): 1035-1044). 35-50 infected worms were then suspended in 750 μL growth medium (M9 buffer supplemented with 10 mg/L cholesterol, 100 mg/L kanamycin and 75 mg/L ampicillin) in separate wells of a 24-well plate with at least 3 wells for each condition. Worms were treated with 200 μM 5-MF or the corresponding volume of solvent (i ctrl) immediately after infection (single application). Worm survival was monitored daily over the period of five days. Additionally, the survival of non-infected worms (ui ctrl) was monitored as a control. […] In (B), worm survival is expressed as the percentage of viability at day 5 compared to day 0, with data analyzed using one-way ANOVA and corrected for multiple comparison using a Bonferroni post-hoc test. ** p<0.01, **** p<0.0001. […]
For efficacy testing of compounds, 750 μL of the worm suspension were transferred into each well of a 24-well plate and substances were added at indicated concentrations (1% DMSO). Nematodes were immediately counted (t0) and survival was monitored over five days post infection by counting living worms. […]

[5] = test system: C. albicans; assay: In vitro antifungal activity of flavone in combination with azoles, growth via OD490; type: cell-based, Candida albicans; details: OD490, flavone plus azole vs each alone

## COc1cccc2oc(-c3ccccc3)cc(=O)c12 [5-MF, 5-methoxyflavone]
[1]
  cell death markers, PI-positive fraction (AnnV/PI co-staining): mainly increased the PI-positive fraction in a concentration-dependent manner
[2]
  accumulation of reactive oxygen species (DHE to Eth conversion): causes accumulation of reactive oxygen species
[3]
  MIC50: 202 ± 35.6 µM (≈ 50.9 µg/mL)
[4]; 200 μM 5-MF single application, infected control 20.6%
  worms alive at day 5 post infection: 42.9%
[4]; compared to infected control
  nematode survival over 5 days post infection: prolonged protection
[5]
  enhancement of the antifungal activity of azoles in the presence of the flavone: enhancement of the antifungal activity
